Results on 35 compounds are retold here after ChEMBL document CHEMBL1125371, “Inhibition of human leukocyte elastase (HLE) by N-substituted peptidyl trifluoromethyl ketones” (J Med Chem, 1992).

Square brackets hold non-standard residues; d marks the D form. Peptide text beside a SMILES is read from it. * marks the point of attachment. ξ: configuration not given here. Cbz = O=C(OCc1ccccc1)*; Boc = CC(C)(C)OC(=O)*; ξV = CC(C)C(N)C(=O)O; CF3 = FC(F)(F)*; Sar = CNCC(=O)O

One experiment has as its target T1, Neutrophil elastase (Homo sapiens, UniProt P08246).
T1 sequence (P08246 whole entry): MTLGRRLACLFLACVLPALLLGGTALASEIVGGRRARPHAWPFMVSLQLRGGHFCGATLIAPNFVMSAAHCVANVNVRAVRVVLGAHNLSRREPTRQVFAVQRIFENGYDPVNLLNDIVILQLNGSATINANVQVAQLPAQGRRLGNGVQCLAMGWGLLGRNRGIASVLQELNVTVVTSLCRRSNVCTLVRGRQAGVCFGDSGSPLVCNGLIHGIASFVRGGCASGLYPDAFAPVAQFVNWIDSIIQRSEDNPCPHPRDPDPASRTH
Nature of the experiment: In vitro inhibitory activity against human leukocyte elastase.

Experiment [1] deals with Cricetinae gen. sp. Nature of the experiment: Compound was evaluated for inhibition of Elastase-induced Pulmonary hemorrhage (EPH) in hamsters at the dose of 10 micro/mL). It counts as functional.
In experiment [2] the test system is Cricetinae gen. sp. Nature of the experiment: Compound was evaluated for inhibition of Elastase-induced Pulmonary hemorrhage (EPH) in hamsters at the dose of 100 micro/mL). The experiment is classed as functional.
The test system of experiment [3] is Cricetinae gen. sp. Nature of the experiment: Compound was evaluated for inhibition of Elastase-induced Pulmonary hemorrhage (EPH) in hamsters at the dose of 20 micro/mL). Also noted: unit not given here. It counts as functional.
Experiment [4] deals with Cricetinae gen. sp. Nature of the experiment: Compound was evaluated for inhibition of Elastase-induced Pulmonary hemorrhage (EPH) in hamsters at the dose of 3 micro/mL). The experiment is classed as functional.
In experiment [5] the test system is Cricetinae gen. sp. As to the kind of experiment: Compound was evaluated for inhibition of Elastase-induced Pulmonary hemorrhage (EPH) in hamsters at the dose of 30 micro/mL). The experiment is classed as functional.
In experiment [6] the test system is Cricetinae gen. sp. Nature of the experiment: Compound was evaluated for inhibition of Elastase-induced Pulmonary hemorrhage (EPH) in hamsters at the dose of 1 micro/mL). It counts as functional.

Turning to `CC(NC(=O)CN(C(=O)[C@@H](NC(=O)c1ccc(C(=O)NS(=O)(=O)c2ccc(Cl)cc2)cc1)C(C)C)C1Cc2ccccc2C1)C(=O)C(F)(F)F` (stereo partly drawn), at Neutrophil elastase, the concentration for half-maximal inhibition (IC50) (commonly the concentration that inhibits the measured activity by half) came to 817 nM. Regarding `CC(C)C(NCCN(C(=O)[C@@H](NC(=O)c1ccc(C(=O)NS(=O)(=O)c2ccc(Cl)cc2)cc1)C(C)C)C1Cc2ccccc2C1)C(=O)C(F)(F)F` (stereo partly drawn), the “Inhibition of elastase-induced pulmonary hemorrhage” value (“Inhibition” below) in the experiment with Cricetinae gen. sp. [1] worked out at 2.7. For the same compound, the IC50 at Neutrophil elastase came to 5000 nM. For `CC(=O)OCC1=C(C(=O)OC(C)(C)C)N2C(=O)[C@@H](C(C)=O)C2S(=O)(=O)C1` (stereo partly drawn), the Max hemorrhage in the experiment with Cricetinae gen. sp. [2] is on record as 0. Regarding `CC(C)C(NC(=O)CNC(=O)[C@@H](NC(=O)OC(C)(C)C)C(C)C)C(=O)C(F)(F)F` (stereo partly drawn) (Boc-Val-Gly-[ξV]-CF3), on Neutrophil elastase, 153 nM corresponded to half-maximal inhibition (IC50). Regarding `CC(C)C(NC(=O)CN(C)C(=O)[C@@H](NC(=O)c1ccc(C(=O)NS(=O)(=O)c2ccc(Cl)cc2)cc1)C(C)C)C(=O)C(F)(F)F` (stereo partly drawn), 52 nM corresponded to half-maximal inhibition at Neutrophil elastase (IC50).

`CC(C)C(NC(=O)CN(Cc1ccccc1)C(=O)[C@@H](NC(=O)c1ccc(C(=O)NS(=O)(=O)c2ccc(Cl)cc2)cc1)C(C)C)C(=O)C(F)(F)F` (stereo partly drawn): the midpoint of inhibition on Neutrophil elastase, the IC50, lay at 217 nM. As to `CC(C)C(NCCN(C(=O)[C@@H](NC(=O)OC(C)(C)C)C(C)C)C1Cc2ccccc2C1)C(=O)C(F)(F)F` (stereo partly drawn), at Neutrophil elastase, the IC50 is more than 5000 nM. `CC(C)[C@H](NC(=O)OCc1ccccc1)C(=O)N(CC(=O)NCC(=O)C(F)(F)F)C1Cc2ccccc2C1` showed a half-inhibitory concentration (IC50) at Neutrophil elastase of more than 5000 nM. On the same count and under the same terms, the value for `CC(C)C(NC(=O)C1CCCN1C(=O)[C@@H](NC(=O)OC(C)(C)C)C(C)C)C(=O)C(F)(F)F` (stereo partly drawn) was 65 nM; that for `COc1ccc(CCN(CC(=O)NC(C(=O)C(F)(F)F)C(C)C)C(=O)[C@@H](NC(=O)c2ccc(C(=O)NS(=O)(=O)c3ccc(Cl)cc3)cc2)C(C)C)cc1OC` (stereo partly drawn) was 84 nM. On Neutrophil elastase, `CC(C)C(NC(=O)CN(C)C(=O)[C@@H](NC(=O)OCc1ccccc1)C(C)C)C(=O)C(F)(F)F` (stereo partly drawn) (Cbz-Val-[Sar]-[ξV]-CF3) yielded an IC50 of 153 nM. On to `CCOC(=O)N1CCC(N(CC(=O)NC(C(=O)C(F)(F)F)C(C)C)C(=O)[C@@H](NC(=O)c2ccc(C(=O)NS(=O)(=O)c3ccc(Cl)cc3)cc2)C(C)C)CC1` (stereo partly drawn), for which, on Neutrophil elastase, the half-inhibitory concentration (IC50) was found to be 57 nM. In addition, the Max hemorrhage in the experiment with Cricetinae gen. sp. [3] stood at 98.4. In the experiment on Cricetinae gen. sp. [3], `CC(C)C(NC(=O)C1Cc2ccccc2CN1C(=O)[C@@H](NC(=O)c1ccc(C(=O)NS(=O)(=O)c2ccc(Cl)cc2)cc1)C(C)C)C(=O)C(F)(F)F` (stereo partly drawn) yielded a Max hemorrhage of 88.4. Take `CC(C)C(NC(=O)CNC(=O)[C@@H](NC(=O)c1ccc(C(=O)NS(=O)(=O)c2ccc(Cl)cc2)cc1)C(C)C)C(=O)C(F)(F)F` (stereo partly drawn): the midpoint of inhibition on Neutrophil elastase, the IC50, lay at 73 nM. Further, the Max hemorrhage with Cricetinae gen. sp. [3] was determined as 85.1. As for `CC(C)[C@H](NC(=O)c1ccc(C(=O)NS(=O)(=O)c2ccc(Cl)cc2)cc1)C(=O)N(CC(=O)NC(Cc1ccccc1)C(=O)C(F)(F)F)C1Cc2ccccc2C1` (stereo partly drawn), the IC50 against Neutrophil elastase was more than 5000 nM. The compound further yielded a Max hemorrhage with Cricetinae gen. sp. [3] of 43.8.

At Neutrophil elastase, `CC(C)C(NC(=O)[C@H]1CCCN1C(=O)[C@@H](NC(=O)OC(C)(C)C)C(C)C)C(=O)C(F)(F)F` (stereo partly drawn) gave a concentration for half-maximal inhibition (IC50) of 172 nM. Turning to `CC(C)C(NC(=O)CN(C(=O)[C@@H](NC(=O)c1ccc(C(=O)NS(=O)(=O)c2ccc(Cl)cc2)cc1)C(C)C)C1Cc2ccccc2C1)C(=O)C(F)(F)F` (stereo partly drawn), in the experiment on Cricetinae gen. sp. [1], the “Inhibition” value came out at 90.5. Further, the Max hemorrhage turned out to be 58.1 in the experiment on Cricetinae gen. sp. [4] and 99.3 in the experiment with Cricetinae gen. sp. [5]. Turning to `CC(C)C(NC(=O)C1Cc2ccccc2CN1C(=O)[C@@H](NC(=O)OCc1ccccc1)C(C)C)C(=O)C(F)(F)F` (stereo in doubt; 20y), at Neutrophil elastase, the IC50 worked out at 233 nM. Turning to `CC(C)C(NC(=O)CN(C(=O)[C@@H](NC(=O)c1ccc(C(=O)NS(=O)(=O)c2ccc(Cl)cc2)cc1)C(C)C)C1CCCCCCC1)C(=O)C(F)(F)F` (stereo partly drawn), the “Inhibition” value in the experiment on Cricetinae gen. sp. [1] is 96.7. This compound also came in with an IC50 against Neutrophil elastase of 67 nM.

Take `CC(C)C(NC(=O)CN(C(=O)[C@@H](NC(=O)c1ccc(C(=O)NS(=O)(=O)c2ccc(Cl)cc2)cc1)C(C)C)C1CCCC1)C(=O)C(F)(F)F` (stereo partly drawn): inhibition against Neutrophil elastase was half-maximal at 92 nM (IC50). For the same compound, the Max hemorrhage in the experiment with Cricetinae gen. sp. [3] is 99.2. For `CC(C)C(NC(=O)CN(C(=O)[C@@H](NC(=O)c1ccc(C(=O)NS(=O)(=O)c2ccc(Cl)cc2)cc1)C(C)C)C1CCCCCC1)C(=O)C(F)(F)F` (stereo partly drawn), in that order: 175 nM and 84.3.

On Neutrophil elastase, `CCOC(=O)CCC(=O)Nc1nc(/C(=N\OC)C(=O)N[C@H](C(=O)N(CC(=O)NC(C(=O)C(F)(F)F)C(C)C)C2Cc3ccccc3C2)C(C)C)cs1` (stereo partly drawn) registered an IC50 of 452 nM.

As to `CC(C)C(NC(=O)CN(C(=O)[C@@H](NC(=O)OCc1ccccc1)C(C)C)C1Cc2ccccc2C1)C(=O)C(F)(F)F` (stereo partly drawn), the Max hemorrhage with Cricetinae gen. sp. [3] was determined as 24.2.

As to `CC(C)[C@H](NC(=O)CN(C(=O)[C@@H](NC(=O)c1ccc(C(=O)NS(=O)(=O)c2ccc(Cl)cc2)cc1)C(C)C)C1Cc2ccccc2C1)C(=O)c1ccc(C(F)(F)F)cc1`, the “Inhibition” value with Cricetinae gen. sp. [1] is reported as 7.7. The IC50 on Neutrophil elastase amounted to 5100 nM.

On Neutrophil elastase, `CC(C)C(NC(=O)CN(C(=O)[C@@H](NC(=O)c1ccc(C(=O)NS(=O)(=O)c2ccc(Br)cc2)cc1)C(C)C)C1Cc2ccccc2C1)C(=O)C(F)(F)F` (stereo partly drawn) gave a 50% inhibitory concentration (IC50) of 149 nM. In the experiment on Cricetinae gen. sp. [3], `CC(C)C(NC(=O)CN(C(=O)[C@@H](NC(=O)c1ccc(C(=O)NS(=O)(=O)c2ccc(Cl)cc2)cc1)C(C)C)C1CC2CCC1C2)C(=O)C(F)(F)F` (stereo partly drawn) showed a Max hemorrhage of 93.8.

Regarding `CC(C)[C@H](NC(=O)c1ccc(C(=O)NS(=O)(=O)c2ccc(Cl)cc2)cc1)C(=O)N(CC(=O)NC(C)(C)C(=O)C(F)(F)F)C1Cc2ccccc2C1`, the concentration for half-maximal inhibition (IC50) against Neutrophil elastase was more than 5000 nM.

As to `CC(C)C(NC(=O)CN(Cc1ccco1)C(=O)[C@@H](NC(=O)c1ccc(C(=O)NS(=O)(=O)c2ccc(Cl)cc2)cc1)C(C)C)C(=O)C(F)(F)F` (stereo partly drawn), the “Inhibition” value in the experiment with Cricetinae gen. sp. [1] is given as 96.2. The IC50 at Neutrophil elastase was 138 nM. `CC(C)C(NC(=O)OCc1ccccc1)C(=O)C(F)(F)F` (stereo not drawn) had a concentration for half-maximal inhibition (IC50) at Neutrophil elastase of more than 5000 nM. With `CC(C)C(NC(=O)c1ccc(C(=O)NS(=O)(=O)c2ccc(Br)cc2)cc1)C(=O)N1CCC[C@H]1C(=O)N[C@H](C(=O)C(F)(F)F)C(C)C` (stereo partly drawn), the “Inhibition” value in the experiment with Cricetinae gen. sp. [1] was 98.5. The Max hemorrhage in the experiment with Cricetinae gen. sp. [4] is reported as 79.4; in the experiment with Cricetinae gen. sp. [6] it was 33.3. For `CCOC(=O)N1CCC(N(CC(=O)NC(C(=O)C(F)(F)F)C(C)C)C(=O)[C@@H](NC(=O)OCc2ccccc2)C(C)C)CC1` (stereo partly drawn), at Neutrophil elastase, the concentration for half-maximal inhibition (IC50) was 507 nM. `CC(C)[C@H](NC(=O)CN(C(=O)[C@@H](NC(=O)OCc1ccccc1)C(C)C)C1Cc2ccccc2C1)C(=O)c1ccc(C(F)(F)F)cc1` displayed a half-inhibitory concentration (IC50) on Neutrophil elastase of more than 5000 nM. `CC(C)C(NC(=O)C1Cc2ccccc2CN1C(=O)[C@@H](NC(=O)OCc1ccccc1)C(C)C)C(=O)C(F)(F)F` (stereo in doubt; 20z): the IC50 against Neutrophil elastase is 73 nM. In the case of `CC(C)C(NC(=O)CN(CC1CCCO1)C(=O)[C@@H](NC(=O)c1ccc(C(=O)NS(=O)(=O)c2ccc(Cl)cc2)cc1)C(C)C)C(=O)C(F)(F)F` (stereo partly drawn), on Neutrophil elastase, it took 30 nM to reach half-maximal inhibition (IC50). Compound `CC(C)C(NC(=O)CN(C(=O)OCc1ccccc1)C1Cc2ccccc2C1)C(=O)C(F)(F)F` (stereo not drawn) had an IC50 against Neutrophil elastase of more than 5000 nM.
